For the experiment, the target named is T1, human full length Hsp90 (Homo sapiens, UniProt P07900).
T1 construct: amino acid residues 1 to 732 of human Hsp90 (GenBank: BC121062.2); made in house; host or cells: E. coli BL21DE3 (pET15b)
The experiment is described as follows: Fluorescence polarization Hsp90 competitive binding assay (GM-FITC displacement). Particulars: for inhibition at 10 µM: compound at 10 μM, read-out: Biochemical Potency % Inhibition at 10 μM; for inhibition at 1 µM: compound at 1 μM, read-out: Biochemical Potency % Inhibition at 1 μM. How it is done:
Hsp90 binding assays was performed generally according to the procedure described in J. Biomol. […] Hsp90 inhibitors were solubilized in DMSO at a stock concentration of 50 mM. […] Eighty five μl of binding assay buffer (20 mM HEPES, pH-7.5, 50 mM KCl, 5 mM MgCl2, 20 mM sodium molybdate, 0.01% NP-40, 2 mM DTT, and 0.1 mg/ml BSA) was added to the wells of a 96 well black plate placed on ice. […] Next, 10 μl either binding assay buffer alone (control) or human full length Hsp90 protein diluted in the binding assay buffer was added to achieve a final concentration of 50 nM. The plates were incubated at 4° C. on a plate shaker for 24 h. Two μl of 50× GM-FITC (9 nM final) in DMSO was added to all wells and the plate was incubated at ambient temperature for 1 h with shaking. Fluorescence polarization readings were taken in duplicate at excitation and emission wavelengths of 480 nm and 500 nm respectively. Specific binding was calculated by subtracting polarization values in the presence of Hsp90 from those in the absence of Hsp90. To calculate percent inhibition the specific binding values obtained for GA-FITC in the presence of compound were compared to values for GA-FITC in the absence of compound (DMSO only).
For orientation: Polarisation of emitted light reports the rotation of a fluorescent probe.

Setting [1] is: Table 1, 50 nM Hsp90, 9 nM GM-FITC, read-out: Biochemical Potency IC50.
The mark [2] stands for this setting: Table II, binding affinities ranked by potency.
Where [3] appears, read: Table II, binding affinities ranked by potency, read-out: IC50.

Where two headings read alike, the source gives them in different places.

For the molecule “6-Chloro-N4-((4-methoxy-3,5-dimethylpyridin-2-yl)methyl)-N4-(3-methoxyphenethyl)pyrimidine-2,4-diamine [SBI-0640606]”, the IC50 (as a rule, the midpoint of a concentration-inhibition curve) by setting is: under setting [1], 432 nM; under setting [3], 432 nM. The Ki (as a rule, the dissociation constant of the complex between target and ligand, obtained from inhibition or displacement) under setting [2] worked out at 108 nM.
“6-Chloro-N4-((4-methoxy-3,5-dimethylpyridin-2-yl)methyl)-N4-(4-methoxyphenethyl)pyrimidine-2,4-diamine [SBI-0640605]”: the IC50 runs as follows: under setting [1], 350 nM; under setting [3], 350 nM. This molecule gave a Ki under setting [2] of 88 nM.
With `COc1cc(CNc2cc(Cl)nc(N)n2)cc(OC)c1OC` [SBI-0206664], the inhibition (in general, the drop in the measured response relative to a control, in per cent) at 10 µM worked out at 25%. The Ki under setting [2] is > 2500 nM. Further, the IC50 under setting [3] was > 10000 nM.
As to `COc1c(C)cnc(CNc2cc(Cl)nc(N)n2)c1C` [SBI-0206665], the inhibition at 1 µM came out at 7% and the inhibition at 10 µM was found to be 61%. Further, under setting [1], the IC50 worked out at 7500 nM. Moreover, the Ki under setting [2] turned out to be 1000 nM. Besides, under setting [3], the IC50 was found to be 4000 nM.
On to `COc1cccc(CNc2cc(Cl)nc(N)n2)c1` [SBI-0630160], for which the inhibition at 10 µM turned out to be 13%. Moreover, the Ki under setting [2] was > 2500 nM. In addition, under setting [3], the IC50 was > 10000 nM.
On to `COc1ccc(CNc2cc(C(F)(F)F)nc(N)n2)c(OC)c1OC` [SBI-0630180], for which the inhibition at 10 µM was determined as 4%. For the same molecule, the Ki under setting [2] was > 2500 nM. Under setting [3], the 50% inhibitory concentration (IC50) was > 10000 nM.
Taken in the same sequence, the figures for `Cc1cc(C)cc(CNc2cc(C(F)(F)F)nc(N)n2)c1` [SBI-0633823] were 17%, > 2500 nM and > 10000 nM.
With `COc1cc(NCc2cc(OC)c(OC)c(OC)c2)nc(N)n1` [SBI-0633825], the IC50 under setting [1] is > 250000 nM and the IC50 under setting [3] is > 10000 nM. Besides, the Ki under setting [2] was > 2500 nM.
With `Nc1nc(Cl)cc(NCc2ccc(-c3ccccc3)cc2)n1` [SBI-0633826], the inhibition at 10 µM came out at 21%. Besides, the Ki under setting [2] is > 2500 nM. The IC50 under setting [3] was > 10000 nM.
Turning to `COc1cc(CNc2ccnc(N)n2)cc(OC)c1OC` [SBI-0634911], the IC50 is > 250000 nM under setting [1] and > 10000 nM under setting [3]. Also, the Ki under setting [2] is > 2500 nM.
Turning to `COc1ccc(CNc2ccnc(N)n2)cc1OC` [SBI-0634912], the IC50 by setting is: under setting [1], > 250000 nM; under setting [3], > 10000 nM. In addition, under setting [2], the Ki is > 2500 nM.
For the molecule `COc1cc(CNc2nc(N)nc3[nH]ccc23)cc(OC)c1OC` [SBI-0635446], the inhibition at 10 µM was 10%. In addition, the Ki under setting [2] was > 2500 nM. The IC50 under setting [3] is > 10000 nM.
Taken in the same sequence, the figures for `Nc1nc(Cl)cc(Nc2ccc3c(c2)OCO3)n1` [SBI-0636438] were 18%, > 2500 nM and > 10000 nM.
On to `Nc1nc(Cl)cc(NCc2ccc(-c3ccc(Cl)cc3F)cc2)n1` [SBI-0638966], for which the inhibition at 10 µM came to 34%. Moreover, the Ki under setting [2] is > 2500 nM. Further, the IC50 under setting [3] is > 10000 nM.
Taken in the same sequence, the figures for `Nc1nc(Cl)cc(NCc2ccc(Oc3ccccc3)cc2)n1` [SBI-0638967] were 10%, > 2500 nM and > 10000 nM.
For `CCOc1ccc(-c2ccc(CNc3cc(Cl)nc(N)n3)cc2)cc1` [SBI-0638969], the inhibition at 10 µM stood at 3%. Under setting [2], the Ki was > 2500 nM. For the same molecule, the IC50 under setting [3] was > 10000 nM.
`COc1c(C)cnc(CNc2nc(N)nc3[nH]cnc23)c1C` [SBI-0639182]: the inhibition at 1 µM was 4% and the inhibition at 10 µM was 19%. For the same molecule, the Ki under setting [2] was > 2500 nM. For the same molecule, the IC50 under setting [3] was > 10000 nM.
Taken in the same sequence, the figures for `COc1cccc2c1ccn2-c1cc(N)c(C(N)=O)c(NC2CCOCC2)c1` [SBI-0639186] were 5%, 10%, > 2500 nM and > 10000 nM.
Taken in the same sequence, the figures for `Cc1cnc(CNc2cc(Cl)nc(N)n2)c(C)c1Cl` [SBI-0639217, 6-Chloro-N4-((4-chloro-3,5-dimethylpyridin-2-yl)methyl)pyrimidine-2,4-diamine] were 47%, 93%, 300 nM and 1200 nM.
Taken in the same sequence, the figures for `Cc1cnc(CNc2cc(Cl)nc(N)n2)c(C)c1Br` [SBI-0639218, N4-((4-Bromo-3,5-dimethylpyridin-2-yl)methyl)-6-chloropyrimidine-2,4-diamine] were 44%, 94%, 368 nM and 1470 nM.
Take `COc1c(C)cnc(CN(C)c2cc(Cl)nc(N)n2)c1C` [SBI-0639219, 6-Chloro-N4-((4-methoxy-3,5-dimethylpyridin-2-yl)methyl)-N4-methylpyrimidine-2,4-diamine]: the inhibition at 1 µM was determined as 57% and the inhibition at 10 µM was determined as 94%. Moreover, the Ki under setting [2] was 213 nM. For the same molecule, the IC50 under setting [3] is 850 nM.
Taken in the same sequence, the figures for `Cc1cnc(CNc2cc(Cl)nc(N)n2)c(C)c1I` [SBI-0639220, 6-Chloro-N4-((4-iodo-3,5-dimethylpyridin-2-yl)methyl)pyrimidine-2,4-diamine] were 66%, 98%, 110 nM and 440 nM.
Consider `COc1c(C)cnc(CN(CCCO)c2cc(Cl)nc(N)n2)c1C` [SBI-0639349, 3-((2-Amino-6-chloropyrimidin-4-yl)((4-methoxy-3,5-dimethylpyridin-2-yl)methyl)amino)propan-1-ol], for which the IC50 was determined as 1370 nM under setting [1] and 1370 nM under setting [3]. Under setting [2], the Ki turned out to be 343 nM.
`CCCN(Cc1ncc(C)c(OC)c1C)c1cc(Cl)nc(N)n1` [SBI-0639350, 6-Chloro-N4-((4-methoxy-3,5-dimethylpyridin-2-yl)methyl)-N4-propylpyrimidine-2,4-diamine]: the IC50 by setting is: under setting [1], 1100 nM; under setting [3], 1100 nM. The molecule also registered a Ki under setting [2] of 275 nM.
On to `COc1c(C)cnc(CN(Cc2ccccc2)c2cc(Cl)nc(N)n2)c1C` [SBI-0639351, N4-Benzyl-6-chloro-N4-((4-methoxy-3,5-dimethylpyridin-2-yl)methyl)pyrimidine-2,4-diamine], for which the half-maximal inhibitory concentration (IC50) was found to be 2210 nM under setting [1] and 2210 nM under setting [3]. In addition, under setting [2], the affinity, expressed as Ki, was 553 nM.
`COc1c(C)cnc(CN(c2cc(Cl)nc(N)n2)C(C)C)c1C` [SBI-0639352, 6-Chloro-N4-isopropyl-N4-((4-methoxy-3,5-dimethylpyridin-2-yl)methyl)pyrimidine-2,4-diamine]: the IC50 reads like this: under setting [1], ≥ 32000 nM; under setting [3], > 32000 nM. Besides, the Ki under setting [2] is > 8000 nM.
Taken in the same sequence, the figures for `CCCCN(Cc1ncc(C)c(OC)c1C)c1cc(Cl)nc(N)n1` [SBI-0639354, N4-butyl-6-chloro-N4-((4-methoxy-3,5-dimethylpyridin-2-yl)methyl)pyrimidine-2,4-diamine] were 719 nM, 720 nM and 180 nM.
Taken in the same sequence, the figures for `C=CCN(Cc1ncc(C)c(OC)c1C)c1cc(Cl)nc(N)n1` [SBI-0639355, N4-Allyl-6-chloro-N4-((4-methoxy-3,5-dimethylpyridin-2-yl)methyl)pyrimidine-2,4-diamine] were 2870 nM, 2870 nM and 718 nM.
Taken in the same sequence, the figures for `Cc1cnc(CN(C)c2cc(Cl)nc(N)n2)c(C)c1Cl` [SBI-0639899, 6-Chloro-N4-((4-chloro-3,5-dimethylpyridin-2-yl)methyl)-N4-methylpyrimidine-2,4-diamine] were 2150 nM, 2150 nM and 538 nM.
As to `Cc1cnc(CN(C)c2cc(Cl)nc(N)n2)c(C)c1Br` [SBI-0639900, N4-((4-Bromo-3,5-dimethylpyridin-2-yl)methyl)-6-chloro-N4-methylpyrimidine-2,4-diamine], the IC50 under setting [1] was ≥ 32000 nM and the IC50 under setting [3] was > 32000 nM. Moreover, the Ki under setting [2] is > 8000 nM.
Taken in the same sequence, the figures for `COc1c(C)cnc(CN(C(=O)CC(C)(C)C)c2cc(Cl)nc(N)n2)c1C` [SBI-0639901, N-(2-amino-6-chloropyrimidin-4-yl)-N-((4-methoxy-3,5-dimethylpyridin-2-yl)methyl)-3,3-dimethylbutanamide] were 30000 nM, 30000 nM and 7500 nM.
Taken in the same sequence, the figures for `COc1c(C)cnc(CN(C(=O)CCCCl)c2cc(Cl)nc(N)n2)c1C` [SBI-0639902, N-(2-Amino-6-chloropyrimidin-4-yl)-4-chloro-N-((4-methoxy-3,5-dimethylpyridin-2-yl)methyl)butanamide] were ≥ 32000 nM, > 32000 nM and > 8000 nM.
Taken in the same sequence, the figures for `COc1c(C)cnc(CN(C(C)=O)c2cc(Cl)nc(N)n2)c1C` [SBI-0640492] were ≥ 32000 nM, > 32000 nM and > 8000 nM.

(Values after patent US20160311795A1, “PYRIMIDINE DIAMINE DERIVATIVES AS INHIBITORS OF CYTOSOLIC HSP90” (CALASIA PHARMACEUTICALS, INC., priority 2012, published 2016).)
